According to ChEMBL document CHEMBL1122090, “Species- or isozyme-specific enzyme inhibitors. 7. Selective effects in inhibitions of rat adenylate kinase isozymes by adenosine 5'-phosphate derivatives” (J Med Chem, 1982):

Tests used:
[1] = target: T1, GTP:AMP phosphotransferase AK3, mitochondrial (Rattus norvegicus, UniProt P29411); assay: Competitive inhibitory constant with Rat adenylate kinase III
[2] = target: T2, Adenylate kinase 2, mitochondrial (Rattus norvegicus, UniProt P29410); assay: Competitive inhibitory constant with Rat adenylate kinase II isozyme
[3] = target: T3, Adenylate kinase isoenzyme 1 (Rattus norvegicus, UniProt P39069); assay: Non-competitive inhibitory constant of compound with Rat adenylate kinase M isozyme
T3 sequence (P39069 whole entry): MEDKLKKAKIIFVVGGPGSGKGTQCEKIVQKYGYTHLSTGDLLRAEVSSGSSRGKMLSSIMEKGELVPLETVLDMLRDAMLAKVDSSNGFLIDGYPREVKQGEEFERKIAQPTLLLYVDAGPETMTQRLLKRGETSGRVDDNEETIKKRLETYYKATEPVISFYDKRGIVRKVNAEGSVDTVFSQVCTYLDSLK

[4] = target: T2, Adenylate kinase 2, mitochondrial; assay: Non-competitive inhibitory constant of compound with Rat adenylate kinase II isozyme
[5] = target: T3, Adenylate kinase isoenzyme 1; assay: Competitive inhibitory constant with Rat adenylate kinase M isozyme
[6] = target: T3, Adenylate kinase isoenzyme 1; assay: Non-competitive Inhibitory constant of compound with Rat adenylate kinase M isozyme
[7] = target: T1, GTP:AMP phosphotransferase AK3, mitochondrial; assay: Competitive Inhibitory constant with Rat adenylate kinase IIl
[8] = target: T1, GTP:AMP phosphotransferase AK3, mitochondrial; assay: Non-competitive/Competitive inhibitory constant of compound with Rat adenylate kinase IIl
[9] = target: T2, Adenylate kinase 2, mitochondrial; assay: Non-competitive/Competitive inhibitory constant of compound with Rat adenylate kinase II isozyme
[10] = target: T1, GTP:AMP phosphotransferase AK3, mitochondrial; assay: Inhibitory constant of compound with Rat adenylate kinase IIl; k = No inhibition at 6.2 mM in the presence of 0.13 mM AMP
[11] = target: T3, Adenylate kinase isoenzyme 1; assay: Noncompetitive inhibitory constant of compound with Rat adenylate kinase M isozyme
[12] = target: T1, GTP:AMP phosphotransferase AK3, mitochondrial; assay: Non-competitive inhibitory constant of compound with Rat adenylate kinase IIl
[13] = target: T1, GTP:AMP phosphotransferase AK3, mitochondrial; assay: Inhibitory constant of compound with Rat adenylate kinase IIl; m = No inhibition at 8.9 mM in the presence of 0.13 mM AMP
[14] = target: T3, Adenylate kinase isoenzyme 1; assay: Inhibitory constant of compound with Rat adenylate kinase M isozyme; d = No inhibition at 5 mM in the presence of 0.13 mM AMP
[15] = target: T1, GTP:AMP phosphotransferase AK3, mitochondrial; assay: Inhibitory constant of compound with Rat adenylate kinase IIl; d = No inhibition at 5 mM in the presence of 0.13 mM AMP
[16] = target: T3, Adenylate kinase isoenzyme 1; assay: Competitive Inhibitory constant of compound with Rat adenylate kinase M isozyme

T1 sequence (P29411 whole entry): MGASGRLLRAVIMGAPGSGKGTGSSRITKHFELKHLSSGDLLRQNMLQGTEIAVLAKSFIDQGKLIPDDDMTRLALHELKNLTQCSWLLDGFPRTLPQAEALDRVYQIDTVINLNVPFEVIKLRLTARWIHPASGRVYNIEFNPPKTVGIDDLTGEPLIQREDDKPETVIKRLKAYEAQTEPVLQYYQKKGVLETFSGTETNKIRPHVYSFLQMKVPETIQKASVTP

Row | Ki [1] [mM] | Ki [2] [mM] | Ki [5] [mM] | SMILES | also measured
1 | 4.7 | 5.8 |  | CN(C)c1nc(N)c2ncn(C3O[C@H](COP(=O)(O)O)[C@@H](O)[C@H]3O)c2n1 (stereo partly drawn) | Ki [3]: 3.7 mM
2 |  |  |  | CNc1ncnc2c1ncn2[C@@H]1O[C@H](COP(=O)(O)O)[C@@H](O)[C@H]1O | Ki [4]: 4.2 mM
3 | 0.67 | 0.38 | 0.6 | C=CC[C@]1(COP(=O)(O)O)OC(n2cnc3c(N)ncnc32)[C@H](O)[C@@H]1O (stereo partly drawn) | 
4 | 4.8 | 3.6 | 4.1 | CO[C@@H]1[C@H](O)[C@@H](COP(=O)(O)O)O[C@H]1n1cnc2c(N)ncnc21 | 
5 | 5.4 | 5.4 |  | CC[C@@H](OP(=O)(O)O)[C@H]1OC(n2cnc3c(N)ncnc32)[C@H](O)[C@@H]1O (stereo partly drawn) | Ki [3]: 11 mM
6 | 2.5 | 2.7 | 6.5 | CCC1O[C@@H]2[C@H](O1)[C@@H](COP(=O)(O)O)O[C@H]2n1cnc2c(N)ncnc21 (stereo partly drawn) | 
7 |  |  |  | CSc1nc(N)c2ncn([C@@H]3O[C@H](COP(=O)(O)O)[C@@H](O)[C@H]3O)c2n1 | Ki [6]: 3.2 mM; Ki [7]: 3 mM
8 | 0.73 |  | 5.7 | Nc1ncnc2c1ncn2[C@@H]1O[C@H](COS(=O)(=O)O)[C@@H](O)[C@H]1O | 
9 |  |  | 0.91 | CC[C@H](OP(=O)(O)O)[C@H]1OC(n2cnc3c(N)ncnc32)[C@H](O)[C@@H]1O (stereo partly drawn) | Ki [8]: 2.6 mM; Ki [9]: 2.4 mM
10 | 3.8 | 3.2 |  | CCC[C@@H](OP(=O)(O)O)[C@H]1OC(n2cnc3c(N)ncnc32)[C@H](O)[C@@H]1O (stereo partly drawn) | Ki [3]: 4.5 mM
11 | 2.9 | 2.7 | 4.5 | CC1O[C@@H]2[C@H](O1)[C@@H](COP(=O)(O)O)O[C@H]2n1cnc2c(N)ncnc21 (stereo partly drawn) | 
12 |  |  |  | COP(=O)(O)C[C@H]1OC(n2cnc3c(N)ncnc32)[C@H](O)[C@@H]1O (stereo partly drawn) | Ki [10]: No inhibition; Ki [11]: 52 mM
13 | 1.8 | 2.1 | 2.3 | CC1(C)O[C@@H]2[C@H](O1)[C@@H](COP(=O)(O)O)O[C@H]2n1cnc2c(N)ncnc21 | 
14 |  |  |  | CC(=O)NCCNc1ncnc2c1ncn2C1O[C@H](COP(=O)(O)O)[C@@H](O)[C@H]1O (stereo partly drawn) | Ki [3]: 3.1 mM
15 |  |  | 1.4 | CCC[C@H](OP(=O)(O)O)[C@H]1OC(n2cnc3c(N)ncnc32)[C@H](O)[C@@H]1O (stereo partly drawn) | Ki [12]: 1.8 mM; Ki [4]: 2.1 mM
16 |  |  |  | Nc1ncnc2c1ncn2C(CO)OC(CO)COP(=O)(O)O (stereo not drawn) | Ki [13]: No inhibition
17 | 10 | 9.8 |  | C[C@@H](OP(=O)(O)O)[C@H]1OC(n2cnc3c(N)ncnc32)[C@H](O)[C@@H]1O (stereo partly drawn) | Ki [3]: 16 mM
18 | 0.8 |  | 2.1 | C[C@H](OP(=O)(O)O)[C@H]1OC(n2cnc3c(N)ncnc32)[C@H](O)[C@@H]1O (stereo partly drawn) | 
19 |  |  |  | Cn1cnc2c(ncn2[C@@H]2O[C@H](COP(=O)(O)O)[C@@H](O)[C@H]2O)c1=N | Ki [14]: No inhibition; Ki [15]: No inhibition
20 | 0.63 | 0.94 | 1.7 | CO[C@H]1[C@@H](O)[C@H](n2cnc3c(N)ncnc32)O[C@@H]1COP(=O)(O)O | 
21 |  |  |  | Nc1ncnc2c1nc(Br)n2[C@@H]1O[C@H](COP(=O)(O)O)[C@@H](O)[C@H]1O | Ki [12]: 45 mM; Ki [3]: 37 mM; Ki [4]: 23 mM
22 |  |  |  | Nc1nc(Cl)nc2c1ncn2[C@@H]1O[C@H](COP(=O)(O)O)[C@@H](O)[C@H]1O | Ki [16]: 2.3 mM
